Measurements taken from US20250011725A1, “TISSUE-[…] CERAMIC TEMPLATE AND USES THEREOF” (Osteogene Bio Inc., priority 2023, published 2025).

Legend:
Assay type in all cases: cell-based
[1] = system: co-cultured osteoblast precursor MC3T3 and osteosarcoma cells; assay: survival index of co-cultured cells after doxorubicin, 3D static culture using a PCT; settings: 3D static culture on PCT, 0.5 mg/ml doxorubicin
Text: (§1) FIG. 37 depicts comparison of survival index of co-cultured cells onto a culture plate for 2D static culture without a porous ceramic template (PCT), 3D static culture using a PCT, and 3D dynamic culture using a PCT after treated with doxorubicin (DOX: therapeutic drug) for designated time. In this example, osteoblast precursor MC3T3 with 2.5×10^5 cell population and osteosarcoma with 1×10^5 cell population are deployed onto a 12 well culture plate for the 2D static culture. 2.5×10^5 MC3T3 cell and 1×10^5 osteosarcoma are also seeded onto a PCT that is placed in a 12 well culture plate for the 3D static culture. For the 3D dynamic culture, 2.5×10^5 MC3T3 cell and 1×10^5 osteosarcoma were seeded onto a PCT and held for two days under static culture condition, then relocated into a culture column and subjected to dynamic culture with doxorubicin (therapeutic agent) using a peristaltic perfusion pump. […] In this regard, the 3D dynamic culture system is considered an effective alternative method of mimicking in vivo cancer model for performing a therapeutic agent test and/or screening.

[2] = system: co-cultured osteoblast precursor MC3T3 and osteosarcoma cells; assay: survival index of co-cultured cells after doxorubicin, 3D dynamic culture using a PCT (perfusion bioreactor)
Text: FIG. 33 depicts a bioreactor system suitable for performing a therapeutic agent treatment test according to embodiments of the present disclosure. Reference numeral 902 represents a co-cultured 3D cancer model platform 902 including a PCT 101 (such as the one resulting from the co-culturing discussed above in connection with FIGS. 32A and 32B). The 3D cancer model platform 902 is inserted into a culture column 903 for dynamic therapeutic agent treatment. The culture column 903 is connected with a medium vessel 904 that is filled with a medium in which a therapeutic agent 901 is dissolved. Afterwards, a dynamic therapeutic agent treatment is employed for up to, but not limited to, about seven days. In an exemplary embodiment, the therapeutic agent 901 includes Doxorubicin with a concentration of about 0.5 mg/ml. However, the present disclosure is suitable for cancer treatment with various therapeutic agents including but not limited to Cisplatin, Methotrexate, Ifosfamide, Actinomycin D, Bleomycin, Vincristine, Cyclophosphamide, Paclitaxel, Carboplatin, or a combination of two more of the foregoing agents. In an exemplary embodiment, a flow rate of the therapeutic agent 901 medium into the culture column 903 is about 5 ml/min for about five minutes per day. […]

[3] = system: co-cultured osteoblast precursor MC3T3 and osteosarcoma cells; assay: survival index of co-cultured cells after doxorubicin, 2D static culture on culture plate without PCT; settings: 0.5 mg/ml doxorubicin
Text: as §1

COc1cccc2c1C(=O)c1c(O)c3c(c(O)c1C2=O)C[C@@](O)(C(=O)CO)C[C@@H]3O[C@H]1C[C@H](N)[C@H](O)[C@H](C)O1 [doxorubicin]
survival index compared to control [1]: significant reduction
reduction of survival index compared to control ([2]; 3D dynamic culture on PCT, 0.5 mg/ml doxorubicin, 5 ml/min flow rate for five minutes per day, three days): not significant
cell survival index, 3D dynamic culture in comparison with 3D static culture ([2]; after doxorubicin treatment): significantly higher
survival index compared to control [3]: significant reduction
